Tests used:
WSEIV NA = WSEIV NA (Wuhan spiny eel influenza virus, UniProt A0A2P1GNP4); type: biochemical
[1] = system: CC(=O)N[C@H]1[C@H]([C@H](O)[C@H](O)CO)O[C@](Oc2ccc3c(C)cc(=O)oc3c2)(C(=O)O)C[C@@H]1O; test: purified protein; settings: 37.0 °C
B/Malaysia/2506/2004 NA = system: T1, B/Malaysia/2506/2004 NA; type: biochemical, Influenza B virus
T1 construct: recombinant NA secreted from High Five insect cells (baculovirus); N-terminal VASP tetramerization domain

CCOC(=O)C1=C[C@@H](OC(CC)CC)[C@H](NC(C)=O)[C@@H](N)C1 [oseltamivir]
dose-dependent inhibition (WSEIV NA): The WSEIV NA was sensitive to oseltamivir

WSEIV NA (Wuhan spiny eel influenza virus)
Km [1]: 118.5 ± 18.3 µM

CC(=O)N[C@H]1[C@H]([C@H](O)[C@H](O)CO)O[C@](Oc2ccc3c(C)cc(=O)oc3c2)(C(=O)O)C[C@@H]1O [MUNANA, 4-methylumbelli-feryl N-acetyl-α-D-neuraminic acid]
Km (B/Malaysia/2506/2004 NA): 137 ± 23.7 µM

Reference: publication PMC8546056 (Nature Communications, 2021)
